Data reported in patent US10857230B2, “Co-therapy comprising a small molecule CSF-1R inhibitor and an agonistic antibody that specifically binds CD40 for the treatment of cancer” (Janssen Biotech, Inc., priority 2017, dated 2020).

Test system: MC38 murine colon carcinoma cells
Test: MC38 Tumor Size Assay (Example 1)
Assay type: in vivo, C57BL/6 mice
Settings: for Median TTE: 61-day study
Protocol: The mice were housed on irradiated Enrich-o'Cobs™ bedding in static microisolators on a 12-hour light cycle at 20-22° C. (68-72° F.) and 40-60% humidity.
MC38 murine colon carcinoma cells were grown in Dulbecco's Modified Eagle Medium (DMEM) supplemented with 10% fetal bovine serum and 2 mM glutamine, 100 units/mL penicillin G sodium, 100 μg/mL streptomycin sulfate, and 25 μg/mL gentamicin.
The MC38 colon cells used for implantation were harvested during log phase growth and re-suspended in cold PBS. Mice were anesthetized with isoflurane prior to implantation. Each mouse was injected subcutaneously in the right flank with 1×10^6 tumor cells (0.1 mL cell suspension) and tumors were monitored as their volumes approached the target range of 350 to 500 mm^3. […] Tumors were measured with calipers twice weekly in two dimensions. Tumor size was calculated using the formula:
where w=width and l=length, in mm, of a tumor. Tumor weight was estimated with the assumption that 1 mg is equivalent to 1 mm^3 of tumor volume.
The compound of formula (I) was stored at room temperature and antibody stock solutions were stored at 4° C. upon receipt.
Each week of dosing, the compound of formula (I) was dissolved in 0.5% HPMC to yield a 1.0 mg/mL dosing solution. The dosing solution was stored at 4° C., protected from light. The rat IgG2a isotype and anti-CSF1R dosing solutions were prepared fresh each day by diluting aliquots of the stock solutions with PBS to yield 1.0 mg/mL dosing solutions. The dosing solutions were stored at 4° C., protected from light. The anti-mCD40 dosing solution was prepared fresh each day by diluting an aliquot of the stock solution with PBS to yield a 0.1 mg/mL dosing solution. The dosing solution was stored at 4° C., protected from light.
On Day 1 of the study, fourteen groups of C57BL/6 mice (n=10) began dosing according to the following protocol.
The vehicle (0.5% HPMC) and the compound of formula (I) were administered orally (p.o.). The rat IgG2a isotype control, anti-mCD40, and anti-CSF1R were administered intraperitoneally (i.p.). Rat IgG2a(2A3) was administered at […]. The compound of formula (I) and anti-CSF1R were administered at 10 mg/kg, and anti-mCD40 was administered at 1 mg/kg. The dosing volume for all animals was 10 mL/kg (0.2 mL per 20-g mouse) and was adjusted for body weight.
Tumors were measured using calipers twice per week. […] TGI (tumor growth inhibition) analysis was performed on Day 15. The MTV (n), the median tumor volume for the number of animals, n, on Day 15, was determined for each group. Percent tumor growth inhibition (% TGI) was defined as the difference between the MTV of the designated control group (Group 1) and the MTV of the drug-treated group, expressed as a percentage of the MTV of the control group: […]
The data set for TGI analysis included all animals in a group, except those that died due to treatment-related or non-treatment related causes
Animals were monitored individually for tumor growth until Day 61. The study protocol specified a tumor growth delay assay based on the median time-to-endpoint (TTE) in a treated group versus the control group. Each animal was marked for tumor progression (TP) when its tumor reached the 1500 mm^3 volume endpoint. The TTE for each mouse was calculated with the following equation: […]
where b is the intercept and m is the slope of the line obtained by linear regression of a log-transformed tumor growth data set. The data set comprised the first observation that exceeded the study endpoint volume and the three consecutive observations that immediately preceded the attainment of the endpoint volume. […] In instances in which the log-transformed calculated TTE preceded the day prior to reaching endpoint or exceeded the day of reaching tumor volume endpoint, a linear interpolation was performed to approximate TTE.

[1] = Groups 3-7: all dosing from Day 1 (antibodies i.p. Days 1, 5, 9, formula (I) p.o. bid×14), formula (I) and anti-CSF1R 10 mg/kg, anti-mCD40 1 mg/kg, vs rat IgG2a control Group 1
[2] = Groups 9, 11, 13, 14: formula (I) 10 mg/kg p.o. bid×14 beginning Day 4 or anti-CSF1R 10 mg/kg i.p. Days 4, 8, 12, in combinations anti-mCD40 1 mg/kg i.p. Days 1, 5, 9, vs rat IgG2a control Group 1
[3] = number of animals of n=10, Groups 3-7: all dosing from Day 1 (antibodies i.p. Days 1, 5, 9, formula (I) p.o. bid×14), formula (I) and anti-CSF1R 10 mg/kg, anti-mCD40 1 mg/kg
[4] = number of animals of n=10, Groups 9, 11, 13, 14: formula (I) 10 mg/kg p.o. bid×14 beginning Day 4 or anti-CSF1R 10 mg/kg i.p. Days 4, 8, 12, in combinations anti-mCD40 1 mg/kg i.p. Days 1, 5, 9

With `CC1(C)CC=C(c2nc(C3CC(C)(C)OC(C)(C)C3)ccc2NC(=O)c2nc(C#N)c[nH]2)CC1` [compound of formula (I), 4-cyano-N-(2-(4,4-dimethylcyclohex-1-en-1-yl)-6-(2,2,6,6-tetramethyltetrahydro-2H-pyran-4-yl)pyridin-3-yl)-1H-imidazole-2-carboxamide] the “% TGI” value (Day 15, vs rat IgG2a control Group 1, Groups 3-7: all dosing from Day 1 (antibodies i.p. Days 1, 5, 9, formula (I) p.o. bid×14), formula (I) and anti-CSF1R 10 mg/kg, anti-mCD40 1 mg/kg) was 21%, the “% TGI” value (Day 15, vs rat IgG2a control Group 1, Groups 9, 11, 13, 14: formula (I) 10 mg/kg p.o. bid×14 beginning Day 4 or anti-CSF1R 10 mg/kg i.p. Days 4, 8, 12, in combinations anti-mCD40 1 mg/kg i.p. Days 1, 5, 9) was −24% and the “Median TTE” value (Groups 3-7: all dosing from Day 1 (antibodies i.p. Days 1, 5, 9, formula (I) p.o. bid×14), formula (I) and anti-CSF1R 10 mg/kg, anti-mCD40 1 mg/kg, 1500 mm^3 endpoint) was 17.5 days. For the same molecule, the “% TGD” value [1] was 17%, the “T − C” value [1] was 2.5 days and the “Median TTE” value (Groups 9, 11, 13, 14: formula (I) 10 mg/kg p.o. bid×14 beginning Day 4 or anti-CSF1R 10 mg/kg i.p. Days 4, 8, 12, in combinations anti-mCD40 1 mg/kg i.p. Days 1, 5, 9, 1500 mm^3 endpoint) was 11.4 days. The “% TGD” value [2] was −24%, the “T − C” value [2] was -3.6 days and the “Regression CR” value [3] was 0. For the same molecule, the “Regression PR” value [3] was 0, the “Regression CR” value [4] was 0 and the “Regression PR” value [4] was 0. The “Regression TFS” value (tumor-free survivors Day 61, of n=10, Groups 3-7: all dosing from Day 1 (antibodies i.p. Days 1, 5, 9, formula (I) p.o. bid×14), formula (I) and anti-CSF1R 10 mg/kg, anti-mCD40 1 mg/kg) was 0 and the “Regression TFS” value (tumor-free survivors Day 61, of n=10, Groups 9, 11, 13, 14: formula (I) 10 mg/kg p.o. bid×14 beginning Day 4 or anti-CSF1R 10 mg/kg i.p. Days 4, 8, 12, in combinations anti-mCD40 1 mg/kg i.p. Days 1, 5, 9) was 0.
